In ChEMBL document CHEMBL4024791, “Identification of Morpholino-2H-pyrido[3,2-b][1,4]oxazin-3(4H)-ones as Nonsteroidal Mineralocorticoid Antagonists” (J Med Chem, 2018):

How the values were obtained:
[1] = Intrinsic clearance in human liver microsomes
[2] = AUC in Wistar rat at 100 mg/kg, po administered as single dose measured up to 8 hrs post dose by LC-MS analysis; format: ADME, organism-based; design: dose 100 mg/kg, time < 8 hr, route oral; details: in vivo
[3] = Volume of distribution at steady state in dog; format: ADME, Canis lupus familiaris; details: in vivo, read-out: Vdss
Rattus norvegicus = assay: Effect on reproductive system in Wistar Han rat at 30 to 500 mg/kg, po for 14 days; format: ADME, organism-based; details: in vivo, 336 h
[4] = Volume of distribution at steady state in rat; format: ADME; details: in vivo, read-out: Vdss
[5] = molecular target: T1, Mineralocorticoid receptor (Rattus norvegicus, UniProt P22199); assay: Antagonist activity at rat GAL4-DBD fused MR ligand binding domain transfected in human Huh7 cells co-expressing GAL4-RE-Luc assessed as reduction in aldosterone-induced luciferase activity after 16 hrs in serum free condition by luciferase reporter gene assay; format: cell-based
T1 sequence (P22199 whole entry): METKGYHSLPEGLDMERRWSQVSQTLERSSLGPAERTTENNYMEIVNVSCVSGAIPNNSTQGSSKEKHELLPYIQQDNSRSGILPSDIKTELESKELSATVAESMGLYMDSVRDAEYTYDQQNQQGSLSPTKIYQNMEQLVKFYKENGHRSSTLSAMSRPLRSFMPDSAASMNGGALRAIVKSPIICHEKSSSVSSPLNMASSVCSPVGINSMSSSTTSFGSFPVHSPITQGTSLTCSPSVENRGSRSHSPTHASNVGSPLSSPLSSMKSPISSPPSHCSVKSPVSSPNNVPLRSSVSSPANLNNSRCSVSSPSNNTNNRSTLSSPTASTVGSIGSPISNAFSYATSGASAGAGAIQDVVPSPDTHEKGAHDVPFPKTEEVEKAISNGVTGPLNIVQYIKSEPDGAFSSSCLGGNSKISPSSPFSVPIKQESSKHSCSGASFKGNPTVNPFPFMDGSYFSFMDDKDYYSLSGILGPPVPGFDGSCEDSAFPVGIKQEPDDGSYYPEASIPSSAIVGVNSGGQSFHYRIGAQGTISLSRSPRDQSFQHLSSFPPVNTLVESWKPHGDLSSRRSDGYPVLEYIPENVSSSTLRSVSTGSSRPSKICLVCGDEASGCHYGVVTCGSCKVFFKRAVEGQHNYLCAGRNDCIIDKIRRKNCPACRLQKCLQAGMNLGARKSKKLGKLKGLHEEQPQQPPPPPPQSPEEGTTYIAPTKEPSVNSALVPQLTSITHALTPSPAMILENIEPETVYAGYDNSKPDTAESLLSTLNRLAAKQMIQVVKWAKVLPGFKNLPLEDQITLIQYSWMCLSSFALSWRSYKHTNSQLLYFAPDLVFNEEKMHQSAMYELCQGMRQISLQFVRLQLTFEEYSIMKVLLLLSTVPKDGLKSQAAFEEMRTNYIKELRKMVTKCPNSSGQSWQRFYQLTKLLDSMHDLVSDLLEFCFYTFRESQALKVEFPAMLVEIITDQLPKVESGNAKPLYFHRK

Progesterone receptor = molecular target: T2, Progesterone receptor (Homo sapiens, UniProt P06401); assay: Displacement of [3H]-progesterone from recombinant human His-tagged PR-b after 4 hrs by liquid scintillation counting
T2 sequence (P06401 whole entry): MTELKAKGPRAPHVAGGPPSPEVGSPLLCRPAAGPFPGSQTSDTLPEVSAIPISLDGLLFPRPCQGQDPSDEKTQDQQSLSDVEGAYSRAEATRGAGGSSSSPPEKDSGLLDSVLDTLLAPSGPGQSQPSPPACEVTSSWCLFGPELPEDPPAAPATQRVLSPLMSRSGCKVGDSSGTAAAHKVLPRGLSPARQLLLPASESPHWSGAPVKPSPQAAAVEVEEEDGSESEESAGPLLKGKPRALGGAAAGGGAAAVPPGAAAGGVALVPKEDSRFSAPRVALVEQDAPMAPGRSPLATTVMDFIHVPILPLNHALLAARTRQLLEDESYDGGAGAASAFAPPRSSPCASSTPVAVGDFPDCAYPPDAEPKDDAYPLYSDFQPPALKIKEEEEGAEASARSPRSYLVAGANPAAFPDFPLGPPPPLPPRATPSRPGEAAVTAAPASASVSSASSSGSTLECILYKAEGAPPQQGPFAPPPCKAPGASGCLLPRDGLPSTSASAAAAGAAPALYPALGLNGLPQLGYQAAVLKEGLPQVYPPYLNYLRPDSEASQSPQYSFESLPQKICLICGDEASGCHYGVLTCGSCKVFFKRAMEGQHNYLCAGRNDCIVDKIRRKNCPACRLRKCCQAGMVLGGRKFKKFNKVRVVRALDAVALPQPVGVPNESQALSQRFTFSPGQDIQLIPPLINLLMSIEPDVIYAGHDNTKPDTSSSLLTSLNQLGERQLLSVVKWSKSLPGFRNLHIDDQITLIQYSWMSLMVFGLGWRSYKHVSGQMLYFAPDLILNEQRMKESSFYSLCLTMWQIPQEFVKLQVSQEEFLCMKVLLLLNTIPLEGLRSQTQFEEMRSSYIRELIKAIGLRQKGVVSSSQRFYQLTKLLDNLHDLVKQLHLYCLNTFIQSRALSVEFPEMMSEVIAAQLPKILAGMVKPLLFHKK

Salmonella typhimurium = assay: Genotoxicity in Salmonella typhimurium by Ames test; format: toxicity; details: salmonella enterica subsp. enterica serovar typhimurium
[6] = Fraction unbound in dog plasma; format: ADME, cell-free, Canis lupus familiaris
[7] = AUC in Wistar rat at 500 mg/kg, po administered as single dose measured up to 8 hrs post dose by LC-MS analysis; format: ADME, organism-based; design: dose 500 mg/kg, time < 8 hr, route oral; details: in vivo

SMILES | microsomal CLint [1] [µL/min/mg] | AUC at 8 h [2] [ng·h/mL] | Vd [3] [L/kg] | Activity (Rattus norvegicus) | Vd [4] [L/kg] | IC50 [5] [nM] | IC50 (Progesterone receptor) [nM] | Activity (Salmonella typhimurium) | fraction unbound [6] | AUC at 8 h [7] [ng·h/mL]
O=C1COc2ccc(N3CCOC[C@H]3c3ccccc3)cc2N1 | 18.3 |  |  |  |  |  |  |  |  | 
C[C@@H]1CN(c2ccc3c(n2)NC(=O)CO3)[C@H](c2ccccc2)CO1 |  | 9410 | 2.37 | Non-Toxic | 6.15 | 3.2 | > 10000 | Non-Toxic | 0.136 | 13500
